The values below come from US10646488B2 (Araxes Pharma LLC, priority 2016, dated 2020).

In one assay the target is T1, KRAS G12C 1-169, his-tagged protein, GDP-loaded (Homo sapiens, UniProt P01116, G12C).
T1 construct: KRAS G12C 1-169, his-tagged protein, GDP-loaded
Nature of the assay: Covalent binding (% modification) to KRAS G12C by mass spectrometry. Also: test concentration or dose not given here. To be noted: covalent binding to KRAS G12C after a ten minute incubation period.
`C=CC(=O)N1C[C@@H](C)N(c2nc(N)nc3c(F)c(-c4c(O)cccc4F)c(Cl)cc23)[C@@H](C)C1` [Compound 17, 1-((3S,5R)-4-(2-amino-6-chloro-8-fluoro-7-(2-fluoro-6-hydroxyphenyl)quinazolin-4-yl)-3,5-dimethylpiperazin-1-yl)prop-2-en-1-one]: the Binding % result was “++ (++ indicates binding activity from 50 to 90%)”.

On to `C=CC(=O)N1C[C@H](C)N(c2nc(N3CC(N(C)C)C3)nc3c(F)c(-c4c(O)cccc4F)c(Cl)cc23)C[C@H]1C` (atropisomer, axis not shown) [Compound 53, 1-((2R,5S)-4-((R)-6-chloro-2-(3-(dimethylamino)azetidin-1-yl)-8-fluoro-7-(2-fluoro-6-hydroxyphenyl)quinazolin-4-yl)-2,5-dimethyl-piperazin-1-yl) prop-2-en-1-one], for which the Binding % result is given as “+ (+ indicates binding activity up to 50%)”.

Turning to `C=CC(=O)N1C[C@@H](C)N(c2nc(N3CC(O)C3)nc3c(F)c(-c4c(O)cccc4F)c(Cl)cc23)[C@@H](C)C1` [Compound 66, 1-((3R,5S)-4-(6-chloro-8-fluoro-7-(2-fluoro-6-hydroxyphenyl)-2-(3-hydroxyazetidin-1-yl)quinazolin-4-yl)-3,5-dimethyl-piperazin-1-yl) prop-2-en-1-one], the Binding % entry is on record as “+++ (+++ indicates binding activity greater than 90%)”.

As for `C=CC(=O)N1C[C@H](C)N(c2nc(N3CC(N(C)C)C3)nc3c(F)c(-c4c(O)cccc4F)c(Cl)cc23)C[C@H]1C` [Compound 24, 1-((2R,5S)-4-(6-chloro-2-(3-(dimethylamino)azetidin-1-yl)-8-fluoro-7-(2-fluoro-6-hydroxyphenyl)quinazolin-4-yl)-2,5-dimethyl-piperazin-1-yl) prop-2-en-1-one], the Binding % result is on record as “++ (++ indicates binding activity from 50 to 90%)”.

As to `C=CC(=O)N1C[C@@H](C)N(c2nc(N3CC(N(C)C)C3)nc3c(F)c(-c4c(O)cccc4F)c(Cl)cc23)C[C@@H]1C` [Compound 81, 1-((2S,5R)-4-(6-chloro-2-(3-(dimethylamino)azetidin-1-yl)-8-fluoro-7-(2-fluoro-6-hydroxyphenyl)quinazolin-4-yl)-2,5-dimethyl-piperazin-1-yl) prop-2-en-1-one], the Binding % result is reported as “+ (+ indicates binding activity up to 50%)”.

The same assay, now with this note: covalent binding to KRAS G12C after a three minute incubation period.
As for `C=CC(=O)N1C[C@H](C)N(c2nc(N3CC(N(C)C)C3)nc3c(F)c(-c4ccccc4F)c(Cl)cc23)C[C@H]1C` [Compound 132, 1-((2R,5S)-4-(6-chloro-2-(3-(dimethylamino)azetidin-1-yl)-8-fluoro-7-(2-fluorophenyl)quinazolin-4-yl)-2,5-dimethyl-piperazin-1-yl) prop-2-en-1-one], the Binding % result is “++ (++ indicates binding activity from 50 to 90%)”.

For `C=CC(=O)N1C[C@H](C)N(c2nc(N3CC(N(C)C)C3)nc3c(F)c(-c4ccccc4O)c(Cl)cc23)C[C@H]1C` [Compound 135, 1-((2R,5S)-4-(6-chloro-2-(3-(dimethylamino)azetidin-1-yl)-8-fluoro-7-(2-hydroxyphenyl)quinazolin-4-yl)-2,5-dimethyl-piperazin-1-yl) prop-2-en-1-one], the Binding % entry is given as “++ (++ indicates binding activity from 50 to 90%)”.

For the compound `C=CC(=O)N1C[C@H](C)N(c2nc(N3CC(N(C)C)C3)nc3c(F)c(-c4cc(O)cc5ccccc45)c(Cl)cc23)C[C@H]1C` (atropisomer, axis not shown) [Compound 219, 1-((2R,5S)-4-(6-chloro-2-(3-(dimethylamino)azetidin-1-yl)-8-fluoro-7-((S)-3-hydroxynaphthalen-1-yl)quinazolin-4-yl)-2,5-dimethyl-piperazin-1-yl) prop-2-en-1-one], the Binding % result is on record as “+++ (+++ indicates binding activity greater than 90%)”.

Take `C=CC(=O)N1C[C@H](C)N(c2nc(N3CC(N(CC)CC)C3)nc3c(F)c(-c4c(O)cccc4F)c(Cl)cc23)C[C@H]1C` (atropisomer, axis not shown) [Compound 176, 1-((2R,5S)-4-(6-chloro-2-(3-(diethylamino)azetidin-1-yl)-8-fluoro-7-((R)-2-fluoro-6-hydroxyphenyl)quinazolin-4-yl)-2,5-dimethyl-piperazin-1-yl) prop-2-en-1-one]: the Binding % entry was “+ (+ indicates binding activity greater than 0% and up to 50%)”.

On to `C=CC(=O)N1CCN(c2nc(N3CC(C)(N(C)C)C3)nc3c(F)c(-c4c(C)ccc5[nH]ncc45)c(Cl)cc23)[C@@H](C)C1` [Compound 150, 1-((3S)-4-(6-chloro-2-(3-(dimethylamino)-3-methylazetidin-1-yl)-8-fluoro-7-(5-methyl-1H-indazol-4-yl)quinazolin-4-yl)-3-methyl-piperazin-1-yl) prop-2-en-1-one], for which the Binding % result was “+++ (+++ indicates binding activity greater than 90%)”.

In the case of `[2H]C([2H])([2H])N(C1CN(c2nc(N3C[C@@H](C)N(C(=O)C=C)C[C@@H]3C)c3cc(Cl)c(-c4c(C)ccc5[nH]ncc45)c(F)c3n2)C1)C([2H])([2H])[2H]` (atropisomer, axis not shown) [Compound 227, 1-((2R,5S)-4-(6-chloro-2-(3-(bis(triduetero-methyl)amino)azetidin-1-yl)-8-fluoro-7-((S)-5-methyl-1H-indazol-4-yl)quinazolin-4-yl)-2,5-dimethyl-piperazin-1-yl) prop-2-en-1-one], the Binding % entry is “+ (+ indicates binding activity greater than 0% and up to 50%)”.

Regarding `C=CC(=O)N1C[C@H](C)N(c2nc(N3CC4(CCCN(C)C4)C3)nc3c(F)c(-c4c(O)cccc4F)c(Cl)cc23)C[C@H]1C` [Compound 183, 1-((2R,5S)-4-(6-chloro-8-fluoro-7-(2-fluoro-6-hydroxyphenyl)-2-(6-methyl-2,6-diazaspiro[3.5]nonan-2-yl)quinazolin-4-yl)-2,5-dimethyl-piperazin-1-yl) prop-2-en-1-one], the Binding % entry is recorded as “++ (++ indicates binding activity from 50 to 90%)”.

As for `C=CC(=O)N1C[C@H](C)N(c2nc(OCCN3CC(F)(F)C3)nc3c(F)c(-c4c(C)ccc5cn[nH]c45)c(Cl)cc23)C[C@H]1C` (atropisomer, axis not shown) [Compound 127, 1-((2R,5S)-4-(6-chloro-2-(2-(3,3-difluoroazetidin-1-yl)ethoxy)-8-fluoro-7-((R)-6-methyl-1H-indazol-7-yl)quinazolin-4-yl)-2,5-dimethyl-piperazin-1-yl) prop-2-en-1-one], the Binding % entry is given as “+++ (+++ indicates binding activity greater than 90%)”.

`C#CCN(C)C1CN(c2nc(N3C[C@@H](C)N(C(=O)C=C)C[C@@H]3C)c3cc(Cl)c(-c4c(C)ccc5cn[nH]c45)c(F)c3n2)C1` [Compound 148, 1-((2R,5S)-4-(6-chloro-8-fluoro-2-(3-(methyl (prop-2-yn-1-yl)amino)azetidin-1-yl)-7-(6-methyl-1H-indazol-7-yl)quinazolin-4-yl)-2,5-dimethyl-piperazin-1-yl) prop-2-en-1-one]: the Binding % result is given as “++ (++ indicates binding activity from 50 to 90%)”.

For `C=CC(=O)N1C[C@H](C)N(c2nc(OC3CCN(C4CC4)CC3)nc3c(F)c(-c4c(C)ccc5cn[nH]c45)c(Cl)cc23)C[C@H]1C` [Compound 137, 1-((2R,5S)-4-(6-chloro-2-((1-cyclopropyl-piperidin-4-yl)oxy)-8-fluoro-7-(6-methyl-1H-indazol-7-yl)quinazolin-4-yl)-2,5-dimethyl-piperazin-1-yl) prop-2-en-1-one], the Binding % result is on record as “+++ (+++ indicates binding activity greater than 90%)”.

Consider `C=CC(=O)N1C[C@H](C)N(c2nc(Oc3ccnn3C)nc3c(F)c(-c4cc(O)cc5ccccc45)c(Cl)cc23)C[C@H]1C` [Compound 205, 1-((2R,5S)-4-(6-chloro-8-fluoro-7-(3-hydroxy-naphthalen-1-yl)-2-((1-methyl-1H-pyrazol-5-yl)oxy)quinazolin-4-yl)-2,5-dimethyl-piperazin-1-yl) prop-2-en-1-one], for which the Binding % entry is given as “++ (++ indicates binding activity from 50 to 90%)”.

`C=CC(=O)N1C[C@H](C)N(c2nc(N3CC4(CCN(C5CC5)C4)C3)nc3c(F)c(-c4c(O)cccc4F)c(Cl)cc23)C[C@H]1C` [Compound 149, 1-((2R,5S)-4-(6-chloro-2-(6-cyclopropyl-2,6-diazaspiro[3.4]octan-2-yl)-8-fluoro-7-(2-fluoro-6-hydroxyphenyl)quinazolin-4-yl)-2,5-dimethyl-piperazin-1-yl) prop-2-en-1-one]: the Binding % entry is “++ (++ indicates binding activity from 50 to 90%)”.

As for `C=CC(=O)N1C[C@H](C)N(c2nc(COCc3ncccc3F)nc3c(F)c(-c4c(O)cccc4F)c(Cl)cc23)C[C@H]1C` [Compound 141, 1-((2R,5S)-4-(6-chloro-8-fluoro-7-(2-fluoro-6-hydroxyphenyl)-2-(((3-fluoro-pyridin-2-yl)methoxy)methyl)quinazolin-4-yl)-2,5-dimethyl-piperazin-1-yl) prop-2-en-1-one], the Binding % entry is given as “++ (++ indicates binding activity from 50 to 90%)”.

For the compound `C=CC(=O)N1C[C@H](C)N(c2nc(Oc3cnn(C)c3)nc3c(F)c(-c4c(C)ccc5[nH]ncc45)c(Cl)cc23)C[C@H]1C` [Compound 217, 1-((2R,5S)-4-(6-chloro-8-fluoro-7-(5-methyl-1H-indazol-4-yl)-2-(1-methyl-1H-pyrazol-4-yloxy)quinazolin-4-yl)-2,5-dimethyl-piperazin-1-yl) prop-2-en-1-one], the Binding % entry is listed as “++ (++ indicates binding activity from 50 to 90%)”.

With `C=CC(=O)N1CCN(c2nc(N3CC(N(CC)CC)C3)nc3c(F)c(-c4c(C)ccc5[nH]ncc45)c(Cl)cc23)[C@@H](C)C1` [Compound 167, 1-((3S)-4-(6-chloro-2-(3-(diethylamino)azetidin-1-yl)-8-fluoro-7-(5-methyl-1H-indazol-4-yl)quinazolin-4-yl)-3-methyl-piperazin-1-yl) prop-2-en-1-one], the Binding % entry is reported as “+++ (+++ indicates binding activity greater than 90%)”.
